Consider five compounds from publication PMC3145970, “Specific CLK Inhibitors from a Novel Chemotype for Regulation of Alternative Splicing” (Chemistry & Biology, 2011).

Common to all, as to experiment: Thermal stability shift assay
Holding throughout (type): binding

For one assay, the target named is AKT3 (Homo sapiens, UniProt Q9Y243). Conditions: read-out: Tm shift AKT3. As for the experimental part:
(§1) Thermal denaturation experiments were carried out in an Mx3005p real-time PCR machine (Agilent) using a protein concentration of 2 μM and an inhibitor concentration of 10 μM. Samples were buffered in 10 mM HEPES (pH 7.5), 500 mM NaCl and a 1:1000 dilution of SyproOrange (Invitrogen). The assay and data evaluation were carried out as described ([Bullock et al., 2005])

The target of a further assay is T1, CaMK4 (Homo sapiens, UniProt Q16566).
T1 sequence (Q16566 1-473): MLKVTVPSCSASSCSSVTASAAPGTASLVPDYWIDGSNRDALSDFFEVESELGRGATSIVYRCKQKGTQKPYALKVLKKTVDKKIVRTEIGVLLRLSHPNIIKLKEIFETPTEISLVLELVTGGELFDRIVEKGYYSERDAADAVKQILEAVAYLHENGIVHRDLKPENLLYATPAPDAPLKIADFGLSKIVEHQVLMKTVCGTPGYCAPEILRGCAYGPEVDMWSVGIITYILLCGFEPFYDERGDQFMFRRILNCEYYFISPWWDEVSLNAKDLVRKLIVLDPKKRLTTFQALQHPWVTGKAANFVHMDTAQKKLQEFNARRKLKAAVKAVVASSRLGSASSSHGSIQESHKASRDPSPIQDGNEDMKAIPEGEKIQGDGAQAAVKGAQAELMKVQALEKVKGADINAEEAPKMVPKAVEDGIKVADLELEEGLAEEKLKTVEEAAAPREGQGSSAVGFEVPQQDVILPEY
Conditions: read-out: Tm shift CaMK4. The protocol:
as §1

The target in the next assay is T2, DRAK2 (Homo sapiens, UniProt O94768).
T2 construct: purchased in-house (SGC Oxford thermal shift panel)
T2 sequence (O94768 1-372): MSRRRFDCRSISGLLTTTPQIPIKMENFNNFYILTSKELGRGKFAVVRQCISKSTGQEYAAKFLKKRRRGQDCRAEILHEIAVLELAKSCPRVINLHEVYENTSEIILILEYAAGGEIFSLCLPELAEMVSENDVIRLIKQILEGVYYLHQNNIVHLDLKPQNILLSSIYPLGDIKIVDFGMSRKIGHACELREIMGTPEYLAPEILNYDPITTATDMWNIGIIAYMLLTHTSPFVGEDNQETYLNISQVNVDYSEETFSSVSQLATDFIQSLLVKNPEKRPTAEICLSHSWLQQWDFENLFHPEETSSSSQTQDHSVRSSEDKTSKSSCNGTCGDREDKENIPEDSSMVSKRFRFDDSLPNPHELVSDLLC
The note with it: read-out: Tm shift DRAK2. The protocol:
as §1

The target in another assay is T3, FES (Homo sapiens, UniProt P07332).
T3 construct: purchased in-house (SGC Oxford thermal shift panel)
T3 sequence (P07332 whole entry): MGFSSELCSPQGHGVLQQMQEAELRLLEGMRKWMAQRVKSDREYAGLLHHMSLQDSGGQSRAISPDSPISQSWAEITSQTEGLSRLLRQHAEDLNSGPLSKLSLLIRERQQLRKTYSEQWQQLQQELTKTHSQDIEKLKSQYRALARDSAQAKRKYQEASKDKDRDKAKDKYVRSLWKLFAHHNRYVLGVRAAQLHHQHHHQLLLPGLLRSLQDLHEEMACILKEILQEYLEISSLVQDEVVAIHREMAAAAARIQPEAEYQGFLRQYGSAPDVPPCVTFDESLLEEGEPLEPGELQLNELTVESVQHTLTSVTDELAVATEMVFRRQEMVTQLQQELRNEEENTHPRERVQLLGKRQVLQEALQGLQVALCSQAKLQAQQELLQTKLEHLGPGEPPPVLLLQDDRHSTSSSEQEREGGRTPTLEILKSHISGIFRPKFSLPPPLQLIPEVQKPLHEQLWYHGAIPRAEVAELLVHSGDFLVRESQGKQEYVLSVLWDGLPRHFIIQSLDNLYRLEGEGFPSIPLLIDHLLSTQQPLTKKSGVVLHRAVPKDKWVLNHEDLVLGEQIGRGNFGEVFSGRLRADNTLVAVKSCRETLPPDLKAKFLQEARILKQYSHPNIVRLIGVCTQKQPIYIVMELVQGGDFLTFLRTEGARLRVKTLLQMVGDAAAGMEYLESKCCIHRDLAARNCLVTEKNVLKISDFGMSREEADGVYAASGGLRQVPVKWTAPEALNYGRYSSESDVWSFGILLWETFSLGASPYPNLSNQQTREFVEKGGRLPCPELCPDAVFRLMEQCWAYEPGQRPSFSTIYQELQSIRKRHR
Conditions: read-out: Tm shift FES. As for the experimental part: as §1

The next assay concerns the target T4, FGR (Homo sapiens, UniProt P09769).
T4 construct: purchased in-house (SGC Oxford thermal shift panel)
Conditions: read-out: Tm shift FGR. The protocol:
as §1

The next assay has as its target T5, MAP2K2 (Homo sapiens, UniProt P36507).
T5 construct: purchased in-house (SGC Oxford thermal shift panel)
Conditions: read-out: Tm shift MAP2K2. As for the experimental part:
as §1

A further assay deals with T6, PKCz (Homo sapiens, UniProt Q05513).
T6 sequence (Q05513 1-592): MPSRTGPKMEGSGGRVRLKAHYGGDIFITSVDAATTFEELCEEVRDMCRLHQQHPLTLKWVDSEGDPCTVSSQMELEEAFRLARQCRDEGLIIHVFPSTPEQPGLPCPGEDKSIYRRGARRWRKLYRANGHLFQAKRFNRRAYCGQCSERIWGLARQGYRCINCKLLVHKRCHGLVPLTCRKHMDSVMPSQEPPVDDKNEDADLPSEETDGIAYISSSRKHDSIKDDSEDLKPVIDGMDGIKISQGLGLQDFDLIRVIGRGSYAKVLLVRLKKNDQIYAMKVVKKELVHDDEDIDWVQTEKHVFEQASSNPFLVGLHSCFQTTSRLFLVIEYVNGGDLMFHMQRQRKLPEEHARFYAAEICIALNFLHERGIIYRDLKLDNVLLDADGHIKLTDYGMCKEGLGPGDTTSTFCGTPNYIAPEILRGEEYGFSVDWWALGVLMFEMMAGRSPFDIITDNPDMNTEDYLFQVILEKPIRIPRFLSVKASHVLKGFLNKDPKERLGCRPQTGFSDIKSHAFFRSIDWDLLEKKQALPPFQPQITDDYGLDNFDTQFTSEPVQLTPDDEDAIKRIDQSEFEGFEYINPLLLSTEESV
Conditions: read-out: Tm shift PKCz. As for the experimental part: as §1

Another assay deals with T7, PKD2 (Homo sapiens, UniProt Q9BZL6).
T7 sequence (Q9BZL6 1-878): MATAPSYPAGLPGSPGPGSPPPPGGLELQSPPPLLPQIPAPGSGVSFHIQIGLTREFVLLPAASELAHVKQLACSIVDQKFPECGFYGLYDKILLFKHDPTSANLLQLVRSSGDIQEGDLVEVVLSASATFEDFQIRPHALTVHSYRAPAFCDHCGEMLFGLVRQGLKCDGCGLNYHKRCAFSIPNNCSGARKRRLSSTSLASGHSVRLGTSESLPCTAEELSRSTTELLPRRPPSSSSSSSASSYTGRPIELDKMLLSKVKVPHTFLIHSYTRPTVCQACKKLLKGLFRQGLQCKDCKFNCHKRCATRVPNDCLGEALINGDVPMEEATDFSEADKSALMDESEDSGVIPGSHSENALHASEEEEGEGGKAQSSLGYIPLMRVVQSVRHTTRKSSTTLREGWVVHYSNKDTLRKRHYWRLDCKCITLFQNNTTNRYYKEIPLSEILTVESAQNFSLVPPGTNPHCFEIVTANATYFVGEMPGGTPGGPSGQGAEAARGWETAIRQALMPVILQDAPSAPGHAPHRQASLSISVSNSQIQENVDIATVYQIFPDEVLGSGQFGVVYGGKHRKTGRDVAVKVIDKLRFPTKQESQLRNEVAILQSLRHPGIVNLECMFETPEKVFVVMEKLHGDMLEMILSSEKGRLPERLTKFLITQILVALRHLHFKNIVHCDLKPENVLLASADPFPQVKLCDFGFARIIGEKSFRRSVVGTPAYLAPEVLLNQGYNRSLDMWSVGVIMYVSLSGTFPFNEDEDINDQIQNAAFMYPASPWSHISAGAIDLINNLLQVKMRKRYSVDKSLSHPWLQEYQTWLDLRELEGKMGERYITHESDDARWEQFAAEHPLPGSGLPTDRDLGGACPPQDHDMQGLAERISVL
Conditions: read-out: Tm shift PKD2. As for the experimental part: as §1

The target in a further assay is T8, RSK2~C (Homo sapiens, UniProt P51812).
T8 construct: RSK2~C 2.7 12.3 2.0 1.0 1.3 -0.2 0.4
T8 sequence (P51812 422-679 limits assumed): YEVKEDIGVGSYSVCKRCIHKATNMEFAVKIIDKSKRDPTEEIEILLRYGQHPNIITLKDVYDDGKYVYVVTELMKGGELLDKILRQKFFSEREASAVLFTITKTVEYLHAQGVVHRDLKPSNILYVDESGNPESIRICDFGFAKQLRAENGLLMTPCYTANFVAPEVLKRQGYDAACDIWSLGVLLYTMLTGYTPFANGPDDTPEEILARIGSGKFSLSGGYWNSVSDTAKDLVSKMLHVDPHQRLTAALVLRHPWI
The note with it: read-out: Tm shift RSK2~C. The protocol:
as §1

Like-named read-outs stand apart in the source and are kept apart here.

T5 sequence (P36507 whole entry): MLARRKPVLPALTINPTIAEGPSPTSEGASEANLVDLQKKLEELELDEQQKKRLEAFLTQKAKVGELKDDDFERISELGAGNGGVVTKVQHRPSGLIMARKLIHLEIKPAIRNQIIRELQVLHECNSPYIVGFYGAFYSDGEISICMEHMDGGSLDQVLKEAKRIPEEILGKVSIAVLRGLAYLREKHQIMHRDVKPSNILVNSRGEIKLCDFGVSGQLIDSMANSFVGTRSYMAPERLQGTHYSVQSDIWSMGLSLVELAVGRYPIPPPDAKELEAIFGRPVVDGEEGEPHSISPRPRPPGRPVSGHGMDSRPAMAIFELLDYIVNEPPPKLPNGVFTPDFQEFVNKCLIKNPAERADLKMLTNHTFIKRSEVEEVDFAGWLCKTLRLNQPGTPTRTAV
Chain of AKT3 (Q9Y243 whole entry): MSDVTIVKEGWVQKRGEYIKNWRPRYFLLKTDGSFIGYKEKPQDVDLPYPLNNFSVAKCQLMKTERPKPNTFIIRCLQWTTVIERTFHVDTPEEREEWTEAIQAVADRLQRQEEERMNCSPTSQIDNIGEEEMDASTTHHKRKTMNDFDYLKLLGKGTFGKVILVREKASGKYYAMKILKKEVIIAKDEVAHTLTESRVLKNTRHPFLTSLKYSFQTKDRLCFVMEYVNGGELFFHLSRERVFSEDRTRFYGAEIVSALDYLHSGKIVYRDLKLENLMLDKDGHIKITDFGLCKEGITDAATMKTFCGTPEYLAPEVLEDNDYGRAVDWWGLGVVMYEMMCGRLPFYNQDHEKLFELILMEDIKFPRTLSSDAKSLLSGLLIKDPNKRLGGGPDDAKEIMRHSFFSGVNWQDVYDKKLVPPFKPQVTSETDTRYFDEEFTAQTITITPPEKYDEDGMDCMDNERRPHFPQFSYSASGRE
T4 sequence (P09769 whole entry): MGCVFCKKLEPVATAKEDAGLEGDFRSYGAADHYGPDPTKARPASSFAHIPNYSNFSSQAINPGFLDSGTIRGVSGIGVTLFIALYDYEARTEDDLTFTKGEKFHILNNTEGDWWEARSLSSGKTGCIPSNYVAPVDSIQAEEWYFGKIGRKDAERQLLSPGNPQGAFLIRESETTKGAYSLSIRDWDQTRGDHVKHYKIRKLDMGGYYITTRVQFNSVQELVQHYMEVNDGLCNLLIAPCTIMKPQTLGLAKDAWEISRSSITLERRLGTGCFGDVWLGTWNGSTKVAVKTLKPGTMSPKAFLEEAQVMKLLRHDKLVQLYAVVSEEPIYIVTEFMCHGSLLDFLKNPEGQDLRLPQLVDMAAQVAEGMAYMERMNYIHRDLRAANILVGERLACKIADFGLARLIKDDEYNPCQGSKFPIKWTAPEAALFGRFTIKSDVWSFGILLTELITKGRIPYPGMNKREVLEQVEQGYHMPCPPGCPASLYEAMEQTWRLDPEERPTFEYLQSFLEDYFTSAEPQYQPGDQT

Regarding `CCOC(=O)c1c(/C(C#N)=C\N)c2ccc(Cl)c(Cl)c2n1C` [KH-CB19, (E)-Ethyl 3-(2-Amino-1-Cyanovinyl)-6,7-Dichloro-1-Methyl-1H-Indole-2-Carboxylate], the ΔTm at 10 µM at AKT3 was -0.2 °C; at CaMK4 it was 0.8 °C; at DRAK2, 1.7 °C; on FES it was -0.3 °C; on FGR it was -0.3 °C; on MAP2K2 it was 0.1 °C. The ΔTm at 10 µM is -0.2 °C at PKCz, 0.1 °C on PKD2 and 2 °C on RSK2~C.
Regarding `NC1=NC(=O)/C(=C2\CCNC(=O)c3[nH]c(Br)cc32)N1` [Hymenialdisine, hymenialdisine, reference compound], the ΔTm at 10 µM was determined as 1.3 °C at AKT3 (inhibitor 10 μM); 0.4 °C on CaMK4 (inhibitor 10 μM); 13 °C at DRAK2 (inhibitor 10 μM); 0.7 °C at FES (inhibitor 10 μM); 0.7 °C at FGR (inhibitor 10 μM); 2 °C on MAP2K2 (inhibitor 10 μM). The ΔTm at 10 µM at PKCz (inhibitor 10 μM) was -0.2 °C; at PKD2 (inhibitor 10 μM), 0.8 °C; at RSK2~C (inhibitor 10 μM), 2.7 °C.
As for `CCOC(=O)c1c(C(C#N)=CN(C)C)c2ccc(Cl)c(Cl)c2n1C` (mixture of isomers) [compound 2, (E/Z)-Ethyl 6,7-Dichloro-3-[1-Cyano-2-(Dimethylamino)Vinyl]-1-Methyl-1H-Indole-2-Carboxylate], the ΔTm at 10 µM on AKT3 (inhibitor 10 μM) is -0.2 °C; on CaMK4 (inhibitor 10 μM) it was 0.2 °C; at DRAK2 (inhibitor 10 μM), 0 °C; on FES (inhibitor 10 μM), 0 °C; at FGR (inhibitor 10 μM), -0.2 °C; on MAP2K2 (inhibitor 10 μM), -0.4 °C. Besides, the results for the ΔTm at 10 µM at PKCz (inhibitor 10 μM), on PKD2 (inhibitor 10 μM) and on RSK2~C (inhibitor 10 μM) were 0.4 °C, 0 °C and -0.2 °C, respectively.
For `CCOC(=O)c1c(C(C#N)=CN)c2ccc(Cl)c(Cl)c2n1C` (mixture of isomers) [KH-CB20, (E/Z)-Ethyl 3-(2-Amino-1-Cyanovinyl)-6,7-Dichloro-1-Methyl-1H-Indole-2-Carboxylate], the ΔTm at 10 µM on AKT3 was -0.3 °C; at CaMK4, -0.1 °C; at DRAK2, 1.5 °C; at FES, -0.3 °C; at FGR it was 0.3 °C; at MAP2K2 it was 0 °C. In addition, the values for the ΔTm at 10 µM on PKCz, on PKD2 and on RSK2~C were 0.1 °C, -0.2 °C and 1 °C, respectively.
As for `Cn1c2c(Cl)c(Cl)ccc2c2c(C#N)c[nH]c(=O)c21` [compound 3, 7,8-Dichloro-9-Methyl-1-Oxo-2,9-Dihydro-1H-Pyrido[3,4-b]Indole-4-Carbonitrile], the ΔTm at 10 µM was determined as 0.1 °C at AKT3 (inhibitor 10 μM); 0.4 °C at CaMK4 (inhibitor 10 μM); 0.9 °C on DRAK2 (inhibitor 10 μM); 0 °C on FES (inhibitor 10 μM); 0.1 °C at FGR (inhibitor 10 μM); 0.1 °C on MAP2K2 (inhibitor 10 μM). The ΔTm at 10 µM turned out to be 0.5 °C at PKCz (inhibitor 10 μM), 0.1 °C at PKD2 (inhibitor 10 μM) and 1.3 °C on RSK2~C (inhibitor 10 μM).
